Active and inactive are the calls of the source. No cut-off for these calls is given here.
Tests used:
Rattus norvegicus [1] = assay: Anti-diabetic activity in normal Wistar rat model assessed as blood glucose level at 20 mg/kg, po followed by treated administered 3 mg/kg orally measured after 90 mins by Oral glucose tolerance test (reference value: 134.11 + /- 4.64 mg/dL); format: functional; conditions: 1.5 h
Rattus norvegicus [2] = assay: Reduction of serum glutamate pyruvate transaminase (SGPT) level in STZ-induced type 2 diabetes male Wistar albino rat model at 10 mg/kg, po measured after 4 weeks by hepatic function test; format: functional, organism-based
Rattus norvegicus [3] = assay: Reduction of serum glutamate pyruvate transaminase (SGPT) level in STZ-induced type 2 diabetes male Wistar albino rat model at 20 mg/kg, po measured after 4 weeks by hepatic function test; format: functional, organism-based
Rattus norvegicus [4] = assay: Reduction of serum glutamate oxaloacetate transaminase (SGOT) level in STZ-induced type 2 diabetes male Wistar albino rat model at 10 mg/kg, po measured after 4 weeks by hepatic function test; format: functional, organism-based
Rattus norvegicus [5] = assay: Anti-diabetic activity in normal Wistar rat model assessed as blood glucose level at 10 mg/kg, po followed by treated administered 3 mg/kg orally measured after 120 mins by Oral glucose tolerance test (reference value: 126.5 + /- 3.90 mg/dL); format: functional; conditions: 2 h
Rattus norvegicus [6] = assay: Anti-diabetic activity in normal Wistar rat model assessed as blood glucose level at 20 mg/kg, po followed by treated administered 3 mg/kg orally measured after 30 mins by Oral glucose tolerance test (reference value: 176.14 + /- 4.04 mg/dL); format: functional; conditions: 0.5 h
Rattus norvegicus [7] = assay: Anti-diabetic activity in normal Wistar rat model assessed as blood glucose level at 20 mg/kg, po followed by treated administered 3 mg/kg orally measured after 120 mins by Oral glucose tolerance test (reference value: 126.5 + /- 3.90 mg/dL); format: functional; conditions: 2 h
Rattus norvegicus [8] = assay: Reduction of alkaline phosphatase (ALP) level in STZ-induced type 2 diabetes male Wistar albino rat model at 20 mg/kg, po measured after 4 weeks by hepatic function test; format: functional, organism-based
Rattus norvegicus [9] = assay: Reduction of serum creatinine level in STZ-induced type 2 diabetes male Wistar albino rat model at 10 mg/kg, po measured after 4 weeks by hepatic function test; format: functional, organism-based
Rattus norvegicus [10] = assay: Antihyperlipidemic effect in STZ-induced type 2 diabetes male Wistar albino rat model assessed as total cholesterol level at 20 mg/kg, po measured after 4 weeks (reference value: 227.04 +/- 4.10 mg/dL); format: functional
Rattus norvegicus [11] = assay: Antihyperlipidemic effect in STZ-induced type 2 diabetes male Wistar albino rat model assessed as triglyceride level at 10 mg/kg, po measured after 4 weeks (reference value: 190.23 +/- 4.37 mg/dL); format: functional
Rattus norvegicus [12] = assay: Anti-diabetic activity in normal Wistar rat model assessed as blood glucose level at 10 mg/kg, po followed by treated administered 3 mg/kg orally measured after 90 mins by Oral glucose tolerance test (reference value: 134.11 + /- 4.64 mg/dL); format: functional; conditions: 1.5 h
Rattus norvegicus [13] = assay: Anti-diabetic activity in normal Wistar rat model assessed as blood glucose level at 10 mg/kg, po followed by treated administered 3 mg/kg orally measured after 30 mins by Oral glucose tolerance test (reference value: […] 176.14 + /- 4.04 mg/dL); format: functional; conditions: 0.5 h
Dipeptidyl peptidase 4 = Dipeptidyl peptidase 4 (Homo sapiens, UniProt P27487); assay: Inhibition of DPP4 (unknown origin) assessed as hydrolysis rate using Gly-pro-p-nitroanilide as substrate measured after 20 mins incubation by fluorometric assay
Dipeptidyl peptidase 4, sequence (P27487 whole entry): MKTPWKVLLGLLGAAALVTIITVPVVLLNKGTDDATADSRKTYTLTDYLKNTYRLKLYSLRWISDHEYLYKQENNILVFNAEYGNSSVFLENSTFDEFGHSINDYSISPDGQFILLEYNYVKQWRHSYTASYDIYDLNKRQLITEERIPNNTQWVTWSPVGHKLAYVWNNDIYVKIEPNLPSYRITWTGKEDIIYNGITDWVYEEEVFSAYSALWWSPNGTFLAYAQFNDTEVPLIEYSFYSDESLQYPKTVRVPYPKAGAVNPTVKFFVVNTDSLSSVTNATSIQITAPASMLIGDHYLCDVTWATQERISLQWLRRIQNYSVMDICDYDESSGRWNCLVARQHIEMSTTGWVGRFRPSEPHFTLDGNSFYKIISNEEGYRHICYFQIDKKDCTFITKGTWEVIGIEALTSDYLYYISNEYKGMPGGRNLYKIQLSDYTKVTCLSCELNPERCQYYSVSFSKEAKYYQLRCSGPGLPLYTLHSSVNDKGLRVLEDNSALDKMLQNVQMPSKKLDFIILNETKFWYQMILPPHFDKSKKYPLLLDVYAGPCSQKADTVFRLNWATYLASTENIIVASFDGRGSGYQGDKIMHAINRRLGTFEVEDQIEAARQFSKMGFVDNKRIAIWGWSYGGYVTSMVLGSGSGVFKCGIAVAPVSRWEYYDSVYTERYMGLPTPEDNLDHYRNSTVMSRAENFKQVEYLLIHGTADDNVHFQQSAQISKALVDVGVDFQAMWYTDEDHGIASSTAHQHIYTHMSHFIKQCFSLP

Rattus norvegicus [14] = assay: Anti-diabetic activity in normal Wistar rat model assessed as blood glucose level at 20 mg/kg, po followed by treated administered 3 mg/kg orally measured after 60 mins by Oral glucose tolerance test (reference value: 153.74 + /- 3.94 mg/dL); format: functional; conditions: 1 h
Rattus norvegicus [15] = assay: Reduction of alkaline phosphatase (ALP) level in STZ-induced type 2 diabetes male Wistar albino rat model at 10 mg/kg, po measured after 4 weeks by hepatic function test; format: functional, organism-based
Rattus norvegicus [16] = assay: Anti-diabetic activity in normal Wistar rat model assessed as blood glucose level at 10 mg/kg, po followed by treated administered 3 mg/kg orally measured after 60 mins by Oral glucose tolerance test (reference value: 153.74 + /- 3.94 mg/dL); format: functional; conditions: 1 h
Rattus norvegicus [17] = assay: Antihyperlipidemic effect in STZ-induced type 2 diabetes male Wistar albino rat model assessed as HDL level at 10 mg/kg, po measured after 4 weeks (reference value: 25.54 +/- 2.62 mg/dL); format: functional
Rattus norvegicus [18] = assay: Reduction of serum glutamate oxaloacetate transaminase (SGOT) level in STZ-induced type 2 diabetes male Wistar albino rat model at 20 mg/kg, po measured after 4 weeks by hepatic function test; format: functional, organism-based
Rattus norvegicus [19] = assay: Antihyperlipidemic effect in STZ-induced type 2 diabetes male Wistar albino rat model assessed as LDL level at 10 mg/kg, po measured after 4 weeks (reference value: 184.65 +/- 4.57 mg/dL); format: functional
Rattus norvegicus [20] = assay: Antihyperlipidemic effect in STZ-induced type 2 diabetes male Wistar albino rat model assessed as LDL level at 20 mg/kg, po measured after 4 weeks (reference value: 184.65 +/- 4.57 mg/dL); format: functional
Rattus norvegicus [21] = assay: Antihyperlipidemic effect in STZ-induced type 2 diabetes male Wistar albino rat model assessed as HDL level at 20 mg/kg, po measured after 4 weeks (reference value: 25.54 +/- 2.62 mg/dL); format: functional
Rattus norvegicus [22] = assay: Antihyperlipidemic effect in STZ-induced type 2 diabetes male Wistar albino rat model assessed as total cholesterol level at 10 mg/kg, po measured after 4 weeks (reference value: 227.04 +/- 4.10 mg/dL); format: functional
Rattus norvegicus [23] = assay: Reduction of serum creatinine level in STZ-induced type 2 diabetes male Wistar albino rat model at 20 mg/kg, po measured after 4 weeks by hepatic function test; format: functional, organism-based
Rattus norvegicus [24] = assay: Antihyperlipidemic effect in STZ-induced type 2 diabetes male Wistar albino rat model assessed as triglyceride level at 20 mg/kg, po measured after 4 weeks (reference value: 190.23 +/- 4.37 mg/dL); format: functional
Rattus norvegicus [25] = assay: Anti-diabetic activity in normal Wistar rat model assessed as blood glucose level at 20 mg/kg, po followed by treated administered 3 mg/kg orally measured immediately after administration by Oral glucose tolerance test (reference value: 105.12 mg/dL); format: functional
Rattus norvegicus [26] = assay: Anti-diabetic activity in normal Wistar rat model assessed as blood glucose level at 10 mg/kg, po followed by treated administered 3 mg/kg orally measured immediately after administration by Oral glucose tolerance test (reference value: 105.12 mg/dL); format: functional
[27] = Acute toxicity in Balb/C mouse assessed as morphological changes in fur at 1250 to 2000 mg/kg, po; format: organism-based; conditions: in vivo, dose 1250-2000 mg/kg
[28] = Acute toxicity in Balb/C mouse assessed as morphological changes in diarrhea at 1250 to 2000 mg/kg, po; format: organism-based; conditions: in vivo, dose 1250-2000 mg/kg
[29] = Acute toxicity in Balb/C mouse assessed as morphological changes in nose at 1250 to 2000 mg/kg, po; format: organism-based; conditions: in vivo, dose 1250-2000 mg/kg
Dipeptidyl peptidase 9 = Dipeptidyl peptidase 9 (Homo sapiens, UniProt Q86TI2); assay: Inhibition of DPP9 (unknown origin) assessed as hydrolysis rate using Gly-pro-p-nitroanilide as substrate measured after 20 mins incubation by […] assay
Dipeptidyl peptidase 9, sequence (Q86TI2 whole entry): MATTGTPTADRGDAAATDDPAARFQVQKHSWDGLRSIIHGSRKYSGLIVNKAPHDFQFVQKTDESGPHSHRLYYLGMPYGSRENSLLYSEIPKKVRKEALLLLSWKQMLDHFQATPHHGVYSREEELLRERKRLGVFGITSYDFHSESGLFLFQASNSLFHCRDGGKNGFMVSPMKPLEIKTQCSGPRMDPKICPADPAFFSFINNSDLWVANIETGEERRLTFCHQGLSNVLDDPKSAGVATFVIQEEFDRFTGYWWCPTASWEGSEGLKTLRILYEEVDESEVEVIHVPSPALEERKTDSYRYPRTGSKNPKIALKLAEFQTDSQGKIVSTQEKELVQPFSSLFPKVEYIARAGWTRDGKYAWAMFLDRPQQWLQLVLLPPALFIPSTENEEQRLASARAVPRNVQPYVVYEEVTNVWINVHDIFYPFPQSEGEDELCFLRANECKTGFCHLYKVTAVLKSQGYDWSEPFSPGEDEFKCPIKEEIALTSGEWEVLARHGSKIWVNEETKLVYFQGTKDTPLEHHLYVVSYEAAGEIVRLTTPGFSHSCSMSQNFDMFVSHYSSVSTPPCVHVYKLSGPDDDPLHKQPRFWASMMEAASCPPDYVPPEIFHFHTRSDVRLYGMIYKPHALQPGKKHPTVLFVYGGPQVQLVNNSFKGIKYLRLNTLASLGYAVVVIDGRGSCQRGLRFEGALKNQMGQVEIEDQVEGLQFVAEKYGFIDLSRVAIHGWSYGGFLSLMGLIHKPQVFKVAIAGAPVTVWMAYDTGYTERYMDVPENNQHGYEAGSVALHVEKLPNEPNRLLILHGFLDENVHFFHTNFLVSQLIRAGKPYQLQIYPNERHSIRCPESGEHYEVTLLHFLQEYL

[30] = Acute toxicity in Balb/C mouse assessed as morphological changes in eyes at 1250 to 2000 mg/kg, po; format: organism-based; conditions: in vivo, dose 1250-2000 mg/kg
[31] = Acute toxicity in Balb/C mouse assessed as morphological changes in unusual behavior at 1250 to 2000 mg/kg, po; format: organism-based; conditions: in vivo, dose 1250-2000 mg/kg
[32] = Acute toxicity in Balb/C mouse assessed as morphological changes in convulsions at 1250 to 2000 mg/kg, po; format: organism-based; conditions: in vivo, dose 1250-2000 mg/kg
[33] = Acute toxicity in Balb/C mouse assessed as morphological changes in salvation at 1250 to 2000 mg/kg, po; format: organism-based; conditions: in vivo, dose 1250-2000 mg/kg
Rattus norvegicus [34] = species on record: Rattus norvegicus; assay: Anti-diabetic activity in STZ-induced type 2 diabetes male Wistar albino rat model assessed as fasting blood glucose level measured on day 28; format: functional
[35] = Acute toxicity in Balb/C mouse assessed as morphological changes in tremors at 1250 to 2000 mg/kg, po; format: organism-based; conditions: in vivo, dose 1250-2000 mg/kg
Dipeptidyl peptidase 8 = Dipeptidyl peptidase 8 (Homo sapiens, UniProt Q6V1X1); assay: Inhibition of DPP8 (unknown origin) assessed as hydrolysis rate using Gly-pro-p-nitroanilide as substrate measured after 20 mins incubation by […] assay
Dipeptidyl peptidase 8, sequence (Q6V1X1 whole entry): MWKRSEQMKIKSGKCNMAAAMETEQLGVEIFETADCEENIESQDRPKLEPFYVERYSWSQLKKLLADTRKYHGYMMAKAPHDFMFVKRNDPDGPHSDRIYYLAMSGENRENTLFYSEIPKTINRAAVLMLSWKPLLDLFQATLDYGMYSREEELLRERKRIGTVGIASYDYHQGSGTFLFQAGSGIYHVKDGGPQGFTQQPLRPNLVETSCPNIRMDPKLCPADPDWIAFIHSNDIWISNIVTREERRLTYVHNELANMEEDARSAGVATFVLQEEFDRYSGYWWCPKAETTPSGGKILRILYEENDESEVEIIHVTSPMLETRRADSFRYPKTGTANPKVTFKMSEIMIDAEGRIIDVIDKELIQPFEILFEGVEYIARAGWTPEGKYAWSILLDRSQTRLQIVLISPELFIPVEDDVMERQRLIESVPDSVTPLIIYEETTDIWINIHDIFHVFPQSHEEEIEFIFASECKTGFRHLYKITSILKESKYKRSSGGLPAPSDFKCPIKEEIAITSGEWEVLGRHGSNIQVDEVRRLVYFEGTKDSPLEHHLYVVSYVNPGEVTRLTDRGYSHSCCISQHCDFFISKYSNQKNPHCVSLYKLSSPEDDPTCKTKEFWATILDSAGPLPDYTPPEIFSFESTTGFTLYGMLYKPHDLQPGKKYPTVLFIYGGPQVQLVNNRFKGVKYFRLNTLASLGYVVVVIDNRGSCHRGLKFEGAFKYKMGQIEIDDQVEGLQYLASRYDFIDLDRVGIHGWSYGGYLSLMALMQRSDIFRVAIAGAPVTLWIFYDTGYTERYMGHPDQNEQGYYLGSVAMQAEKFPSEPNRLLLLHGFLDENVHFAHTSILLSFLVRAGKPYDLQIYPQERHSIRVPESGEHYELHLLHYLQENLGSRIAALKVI

[36] = Acute toxicity in Balb/C mouse assessed as morphological changes in skin at 1250 to 2000 mg/kg, po; format: organism-based; conditions: in vivo, dose 1250-2000 mg/kg
Rattus norvegicus [37] = species on record: Rattus norvegicus; assay: Anti-diabetic activity in STZ-induced type 2 diabetes male Wistar albino rat model assessed as fasting blood glucose level measured on day 1; format: functional
[38] = Acute toxicity in Balb/C mouse assessed as changes in general appearance at 1250 to 2000 mg/kg, po; format: organism-based; conditions: in vivo, dose 1250-2000 mg/kg

| Structure (SMILES) | Activity (Rattus norvegicus [1]) [mg/dL] | Activity (Rattus norvegicus [2]) | Activity (Rattus norvegicus [3]) | Activity (Rattus norvegicus [4]) | Activity (Rattus norvegicus [5]) [mg/dL] | Activity (Rattus norvegicus [6]) [mg/dL] | Activity (Rattus norvegicus [7]) [mg/dL] | Activity (Rattus norvegicus [8]) | Activity (Rattus norvegicus [10]) [mg/dL] | Activity (Rattus norvegicus [11]) [mg/dL] | Activity (Rattus norvegicus [12]) [mg/dL] | Activity (Rattus norvegicus [13]) [mg/dL] | IC50 (Dipeptidyl peptidase 4) [µM] | Activity (Rattus norvegicus [14]) [mg/dL] | Activity (Rattus norvegicus [15]) | Activity (Rattus norvegicus [16]) [mg/dL] | Activity (Rattus norvegicus [17]) [mg/dL] | Activity (Rattus norvegicus [18]) | Activity (Rattus norvegicus [19]) [mg/dL] | Activity (Rattus norvegicus [20]) [mg/dL] | other results |
| --- | --- | --- | --- | --- | --- | --- | --- | --- | --- | --- | --- | --- | --- | --- | --- | --- | --- | --- | --- | --- | --- |
| CC1=C(C(=O)O)C(c2ccc(F)c(F)c2)N=C(N)N1C(=O)CN1CCn2c(nnc2C(F)(F)F)C1 (stereo unspecified) | 110.82 | Active | Active | Active | 126.68 | 114.05 | 107.18 | Active | 134.27 | 141.45 | 134.23 | 117.53 | 0.116 | 112.43 | Active | 113.74 | 48.67 | Active | 121.78 | 105.65 | Activity (Rattus norvegicus [9]): Active; Activity (Rattus norvegicus [21]): 59.54 mg/dL; Activity (Rattus norvegicus [22]): 148.1 mg/dL; Activity (Rattus norvegicus [23]): Active; Activity (Rattus norvegicus [24]): 113.65 mg/dL; Activity (Rattus norvegicus [25]): 101.26 mg/dL; Activity (Rattus norvegicus [26]): 103.12 mg/dL |
| CC1=C(C(=O)O)C(c2ccc(F)c(F)c2)N=C(N)N1C(=O)CN1Cc2cn(S(C)(=O)=O)nc2C1 (stereo unspecified) | 116.56 | Active | Active | Active | 108.68 | 116.78 | 109.75 | Active | 138.76 | 146.34 | 110.22 | 119.65 | 0.002 | 114.26 | Active | 121.54 | 45.9 | Active | 131.65 | 114.67 | Activity [27]: Non-Toxic; Activity [28]: Non-Toxic; Activity [29]: Non-Toxic; IC50 (Dipeptidyl peptidase 9): 2.84 µM; Activity [30]: Non-Toxic; Activity [31]: Non-Toxic; Activity [32]: Non-Toxic; Activity [33]: Non-Toxic; Activity (Rattus norvegicus [34]): 141 mg/dL; Activity [35]: Non-Toxic; IC50 (Dipeptidyl peptidase 8): 3.32 µM; Activity [36]: Non-Toxic; Activity (Rattus norvegicus [21]): 53.56 mg/dL; Activity (Rattus norvegicus [22]): 152.34 mg/dL; Activity (Rattus norvegicus [37]): 291 mg/dL; Activity [38]: Non-Toxic; Activity (Rattus norvegicus [24]): 117.23 mg/dL; Activity (Rattus norvegicus [25]): 100.83 mg/dL; Activity (Rattus norvegicus [26]): 103.52 mg/dL |

Source: ChEMBL document CHEMBL6127049, “Discovery of the selective and nanomolar inhibitor of DPP-4 more potent than sitagliptin by structure-guided rational design” (Eur J Med Chem, 2024)
